Data taken from article PMC11742003, “Co-expression of the RPS6KB1 and PDPK1 genes for production of activated p70S6K1 using bac-to-bac baculovirus expression system” (Molecular Biology Reports, 2025).

Molecular target: T1, p70S6K1 (His-actS6K1; Ribosomal protein S6 kinase 1) (Homo sapiens, UniProt P23443, T412D)
T1 construct: gene RPS6KB1; 6xHis-tagged S6K1 residues 3-398 (ΔAID), phosphorylated at T229 by co-expressed PDPK1(ΔPH)
Experiment: AlphaScreen kinase assay with biotinylated rpS6 peptide, […] ATP, purified enzyme
Format: biochemical

T1 sequence (P23443 26-421 T412D): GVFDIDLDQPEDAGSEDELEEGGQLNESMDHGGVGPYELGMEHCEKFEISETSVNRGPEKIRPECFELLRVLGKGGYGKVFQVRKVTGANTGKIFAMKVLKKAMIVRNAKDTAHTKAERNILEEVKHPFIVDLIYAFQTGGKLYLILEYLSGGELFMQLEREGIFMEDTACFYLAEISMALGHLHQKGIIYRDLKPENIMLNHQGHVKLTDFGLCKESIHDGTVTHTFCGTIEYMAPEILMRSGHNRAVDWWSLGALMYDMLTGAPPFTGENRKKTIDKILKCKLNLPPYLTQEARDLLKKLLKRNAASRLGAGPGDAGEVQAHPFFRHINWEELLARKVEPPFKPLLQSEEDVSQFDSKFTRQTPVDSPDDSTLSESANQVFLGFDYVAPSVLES

In the case of Cn1cc(-c2ccc(F)c(C(F)(F)F)c2)nc1C1CCN(c2ncnc3[nH]ncc23)CC1 [LY2584702], the IC50 is reported as 4.2 nM.
